# Measured values as given in PubChem BioAssay (NCI).
#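 Briefly, cells in 96-well plates were exposed to five compound concentrations for 48 h, and endpoints were estimated by linear interpolation. GI50 = concentration required for 50% inhibition of growth. Definition used: TGI = concentration required for complete inhibition of growth.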
# Legend:
# Assay in all cases: DTP human tumour cell line panel, 48 h
# SF-268 CNS = tested on: SF-268 CNS
# SK-OV-3 ovarian = tested on: SK-OV-3 ovarian
# NCI-H226 lung = tested on: NCI-H226 lung
# SK-MEL-28 melanoma = tested on: SK-MEL-28 melanoma
# HS 578T breast = tested on: HS 578T breast
# ACHN renal = tested on: ACHN renal
# UO-31 renal = tested on: UO-31 renal
# MDA-MB-435 = tested on: MDA-MB-435
# SNB-75 CNS = tested on: SNB-75 CNS
# OVCAR-5 ovarian = tested on: OVCAR-5 ovarian
# SK-MEL-5 melanoma = tested on: SK-MEL-5 melanoma
# SK-MEL-2 melanoma = tested on: SK-MEL-2 melanoma
# HOP-92 NSCLC = tested on: HOP-92 NSCLC
# OVCAR-3 ovarian = tested on: OVCAR-3 ovarian
# NCI/ADR-RES ovarian = tested on: NCI/ADR-RES ovarian
# CCRF-CEM leukemia = tested on: CCRF-CEM leukemia
# DU-145 prostate = tested on: DU-145 prostate
# SN12C renal = tested on: SN12C renal
# TK-10 renal = tested on: TK-10 renal
# MCF7 breast = tested on: MCF7 breast
# SNB-19 CNS = tested on: SNB-19 CNS
# K-562 leukemia = tested on: K-562 leukemia
# SW-620 colon = tested on: SW-620 colon
# IGROV1 ovarian = tested on: IGROV1 ovarian
# HCT-116 colon = tested on: HCT-116 colon
# SF-295 CNS = tested on: SF-295 CNS
# 786-0 renal = tested on: 786-0 renal
# NCI-H23 lung = tested on: NCI-H23 lung
# OVCAR-4 ovarian = tested on: OVCAR-4 ovarian
# UACC-257 melanoma = tested on: UACC-257 melanoma
# A549 NSCLC = tested on: A549 NSCLC
# HCT-15 colon = tested on: HCT-15 colon
# U251 CNS = tested on: U251 CNS
# PC-3 prostate = tested on: PC-3 prostate
# SF-539 CNS = tested on: SF-539 CNS
# HCC-2998 colon = tested on: HCC-2998 colon
# KM12 colon = tested on: KM12 colon
# HT29 colon = tested on: HT29 colon
# LOX IMVI melanoma = tested on: LOX IMVI melanoma
# NCI-H460 lung = tested on: NCI-H460 lung
# RXF 393 renal = tested on: RXF 393 renal
# MDA-MB-231 breast = tested on: MDA-MB-231 breast
# HOP-62 NSCLC = tested on: HOP-62 NSCLC
# UACC-62 melanoma = tested on: UACC-62 melanoma
# HL-60(TB) leukemia = tested on: HL-60(TB) leukemia
# NCI-H522 lung = tested on: NCI-H522 lung
# OVCAR-8 ovarian = tested on: OVCAR-8 ovarian
compound,measurement,setting,value
N=C(N)c1ccc(-c2ccc(-c3ccc(Cl)cc3Cl)o2)cc1,GI50,SF-268 CNS,2030 nM
same,TGI,SF-268 CNS,4650 nM
same,GI50,SK-OV-3 ovarian,1620 nM
same,TGI,SK-OV-3 ovarian,3230 nM
same,GI50,NCI-H226 lung,1820 nM
same,TGI,NCI-H226 lung,4280 nM
same,GI50,SK-MEL-28 melanoma,1610 nM
same,TGI,SK-MEL-28 melanoma,3030 nM
same,GI50,HS 578T breast,2130 nM
same,TGI,HS 578T breast,4990 nM
same,GI50,ACHN renal,1680 nM
same,TGI,ACHN renal,3060 nM
same,GI50,UO-31 renal,1670 nM
same,TGI,UO-31 renal,3180 nM
same,GI50,MDA-MB-435,1700 nM
same,TGI,MDA-MB-435,3090 nM
same,GI50,SNB-75 CNS,1400 nM
same,TGI,SNB-75 CNS,2730 nM
same,GI50,OVCAR-5 ovarian,1530 nM
same,TGI,OVCAR-5 ovarian,2950 nM
same,GI50,SK-MEL-5 melanoma,1740 nM
same,TGI,SK-MEL-5 melanoma,3130 nM
COc1cc(Nc2ccnc(N3CCN(c4ccnc5cc(Cl)ccc45)CC3)n2)cc(OC)c1,GI50,SK-MEL-2 melanoma,738 nM
same,TGI,SK-MEL-2 melanoma,4020 nM
same,GI50,SF-268 CNS,3050 nM
same,TGI,SF-268 CNS,> 100000 nM
same,GI50,SK-OV-3 ovarian,3170 nM
same,TGI,SK-OV-3 ovarian,> 36300 nM
same,GI50,HOP-92 NSCLC,431 nM
same,TGI,HOP-92 NSCLC,6610 nM
same,GI50,OVCAR-3 ovarian,2530 nM
same,TGI,OVCAR-3 ovarian,> 28900 nM
same,GI50,NCI-H226 lung,2340 nM
same,TGI,NCI-H226 lung,> 55700 nM
same,GI50,NCI/ADR-RES ovarian,1100 nM
same,TGI,NCI/ADR-RES ovarian,5470 nM
same,GI50,CCRF-CEM leukemia,1380 nM
same,TGI,CCRF-CEM leukemia,> 100000 nM
same,GI50,DU-145 prostate,3250 nM
same,TGI,DU-145 prostate,> 100000 nM
same,GI50,SN12C renal,1280 nM
same,TGI,SN12C renal,> 100000 nM
same,GI50,TK-10 renal,2220 nM
same,TGI,TK-10 renal,> 100000 nM
same,GI50,MCF7 breast,198 nM
same,TGI,MCF7 breast,> 25600 nM
same,GI50,SNB-19 CNS,2640 nM
same,TGI,SNB-19 CNS,> 100000 nM
same,GI50,K-562 leukemia,432 nM
same,TGI,K-562 leukemia,> 100000 nM
same,GI50,SW-620 colon,601 nM
same,TGI,SW-620 colon,> 27800 nM
same,GI50,SK-MEL-28 melanoma,1390 nM
same,TGI,SK-MEL-28 melanoma,> 100000 nM
same,GI50,HS 578T breast,2590 nM
same,TGI,HS 578T breast,> 100000 nM
same,GI50,IGROV1 ovarian,1360 nM
same,TGI,IGROV1 ovarian,> 26100 nM
same,GI50,ACHN renal,2040 nM
same,TGI,ACHN renal,> 100000 nM
same,GI50,HCT-116 colon,496 nM
same,TGI,HCT-116 colon,10300 nM
same,GI50,SF-295 CNS,289 nM
same,TGI,SF-295 CNS,2130 nM
same,GI50,UO-31 renal,938 nM
same,TGI,UO-31 renal,> 30700 nM
same,GI50,MDA-MB-435,209 nM
same,TGI,MDA-MB-435,626 nM
same,GI50,786-0 renal,1600 nM
same,TGI,786-0 renal,4600 nM
same,GI50,NCI-H23 lung,1320 nM
same,TGI,NCI-H23 lung,> 100000 nM
same,GI50,OVCAR-4 ovarian,477 nM
same,TGI,OVCAR-4 ovarian,> 45100 nM
same,GI50,UACC-257 melanoma,3350 nM
same,TGI,UACC-257 melanoma,> 100000 nM
same,GI50,A549 NSCLC,1810 nM
same,TGI,A549 NSCLC,> 26700 nM
same,GI50,HCT-15 colon,109 nM
same,TGI,HCT-15 colon,> 100000 nM
same,GI50,U251 CNS,1660 nM
same,TGI,U251 CNS,> 26900 nM
same,GI50,PC-3 prostate,1400 nM
same,TGI,PC-3 prostate,> 100000 nM
same,GI50,SF-539 CNS,1250 nM
same,TGI,SF-539 CNS,3170 nM
same,GI50,HCC-2998 colon,2800 nM
same,TGI,HCC-2998 colon,> 100000 nM
same,GI50,KM12 colon,101 nM
same,TGI,KM12 colon,> 100000 nM
same,GI50,HT29 colon,460 nM
same,TGI,HT29 colon,2960 nM
same,GI50,LOX IMVI melanoma,749 nM
same,TGI,LOX IMVI melanoma,5680 nM
same,GI50,SNB-75 CNS,1950 nM
same,TGI,SNB-75 CNS,6810 nM
same,GI50,OVCAR-5 ovarian,2410 nM
same,TGI,OVCAR-5 ovarian,> 100000 nM
same,GI50,NCI-H460 lung,1510 nM
same,TGI,NCI-H460 lung,> 100000 nM
same,GI50,RXF 393 renal,1860 nM
same,TGI,RXF 393 renal,> 100000 nM
same,GI50,MDA-MB-231 breast,567 nM
same,TGI,MDA-MB-231 breast,> 100000 nM
same,GI50,HOP-62 NSCLC,1980 nM
same,TGI,HOP-62 NSCLC,14200 nM
same,GI50,UACC-62 melanoma,614 nM
same,TGI,UACC-62 melanoma,3760 nM
same,GI50,HL-60(TB) leukemia,2580 nM
same,TGI,HL-60(TB) leukemia,> 100000 nM
same,GI50,NCI-H522 lung,874 nM
same,TGI,NCI-H522 lung,4480 nM
same,GI50,OVCAR-8 ovarian,1970 nM
same,TGI,OVCAR-8 ovarian,> 23000 nM
